Assay results from patent US20250382261A1 (The Broad Institute, Inc., priority 2021, published 2025).
In brackets after ≈: the same amount, converted by molar mass.

Columns and labels:
HepG2 cells = settings: human, 72 h, 75 µM
[1] = Plasma protein binding (equilibrium dialysis); format: in vitro ADME
Experimental: Plasma protein binding. Protein binding of P35 in mouse/rat/dog/human plasma was determined using an equilibrium dialysis method. The fraction of compound unbound to proteins was calculated with LC-MS/MS. This assay was performed in duplicate by Cyprotex Ltd.

A. baumannii ATCC 17978 = test: Systemic A. baumannii murine infection model; format: in vivo, mouse
Experimental: Mouse infection models. Animal experiments were conducted according to guidelines set by the Canadian Council on Animal Care using protocols approved by the Animal Review Ethics Board at McMaster University under Animal Use Protocol #20-12-43. Before infection, mice were relocated at random from a housing cage to treatment or control cages. No animals were excluded from analyses, and blinding was considered unnecessary. Seven- to nine-week-old female C57BL/6 mice (Charles River) were infected intraperitoneally with ˜2×10^6 CFU of A. baumannii ATCC 17978, with 5% porcine mucin (Sigma-Aldrich). Infections were allowed to establish for 2 h, and treatments were administered intraperitoneally. For the survival study, the clinical endpoint was determined using a five-point body condition score analyzing weight loss, decrease in body temperature, respiratory distress, hampered mobility and hunched posture. Experimental endpoint was defined as five days post-infection for mice not reaching clinical endpoint. For CFU/mL enumeration, animals were infected as described above and euthanized 6 h post-infection, and blood was collected into sterile 2 ml heparinized tubes (BD Scientific) serially diluted in PBS and plated onto solid LB. Plates were incubated overnight at 37° C., and colonies were quantified to determine bacterial load.
This was directly compared to the activity of P35 and P36 in this model (all administered at 10 mg/kg) in combination with novobiocin (50 mg/kg).
For this experiment the same A. baumannii infection model was used, however, endpoint was defined as 6 h post-infection, at which point blood was collected for CFU/mL enumeration (FIG. 2b).

A. baumannii = test: Fold reduction of antibiotic MIC at fixed adjuvant concentration; format: cell-based; settings: pentamidine or P35 at 50 μg/mL
Experimental: (§1) Bacterial strains and culture conditions. The following bacterial strains were used within this study; A. baumannii (ATCC 17978), K. pneumoniae (ATCC 43816), K. pneumoniae (ATCC 43816, expressing pGDP2:mcr-1), P. aeruginosa (PA01). Bacterial growth was in cation-adjusted Mueller-Hinton broth (MHB) at 37° C., and inoculum was prepared according to CLSI protocol (CLSI 2015).
(§2) Potentiation assays. Checkerboard analyses were conducted with each drug serially diluted at eight concentrations to create an 8×8 matrix. At least two biological replicates were done for each combination, and the means were used for FIC calculation. The FIC for each drug was calculated by dividing the concentration of the drug in the presence of codrug in a combination for a well showing <10% growth by the MIC for that drug alone. The FIC index (FICI) is the sum of the two FICs, with an FIC index≤0.5 deemed synergistic.

Solubility at pH 7.4 = format: physicochemical; settings: pH 7.4, aqueous buffer, thermodynamic from solid; read-out: Kinetic solubility (μM @ pH 7.4)
Experimental: Thermodynamic solubility. P35 in solution at pH 7.4 was incubated at ambient temperature overnight with stirring using a vial roller system. The saturation of the solution was determined using HPLC-UV. This assay was performed in duplicate by Cyprotex Ltd.

[2] = In vitro metabolic stability, human; format: in vitro ADME; settings: read-out: In vitro metabolic stability (t1/2, min), human
in vitro = settings: human
[3] = in vivo, 1 mg/kg
Experimental: Plasma samples were taken from 3 mice per time point (5, 15, 30 min; 1, 2, 4, 6 and 8 h post-dose). An aliquot of 2 μL sample was protein precipitated with 60 μL methanol, the mixture was vortex-mixed well and centrifuged at 13000 rpm for 10 min at 4° C. 2 μL supernatant was injected for LC-MS/MS analysis. The mean plasma concentration and the standard deviation from all 3 animals within each time point were calculated. PK parameters were calculated with a non-compartmental analysis. The mean plasma concentrations from all 3 mice at each time point were used in the calculations.

[4] = In vitro metabolic stability, rat; format: in vitro ADME; settings: read-out: In vitro metabolic stability (t1/2, min), rat
LPS from E. coli EH100 = test: BODIPY-Cadaverine LPS displacement assay; format: binding; settings: BODIPY-cadaverine displacement from E. coli EH100 LPS
Experimental: BODIPY-Cadaverine LPS displacement assay. The BODIPY-cadaverine LPS displacement assay was performed as previously described (Wood et al. 2004. Combinatorial Chemistry & High Throughput Screening, 7: 239-49; Klobucar et al. 2021. ACS Chemical Biology, 16: 929-42). A solution of BODIPY-cadaverine (2.25 μM) and LPS from E. coli EH100 (5.25 μM) in Tris-HCl buffer (50 mM, pH 7.4) was prepared. 0.5 μL of compound and 49.5 μL of the Tris-HCl buffer with BODIPY-cadaverine and LPS solution were added to a Corning nonbinding surface black 384-well polystyrene plate. Fluorescence intensity was measured immediately with an excitation wavelength of 580 nm and an emission wavelength of 620 nm. EC50 values were calculated using a three-parameter logistic curve in GraphPad Prism 9.

[5] = test system: K. pneumoniae (ATCC 43816, expressing pGDP2:mcr-1); test: Checkerboard potentiation assay with novobiocin, mcr-1 strain; format: cell-based; settings: mcr-1 expressing K. pneumoniae
P. aeruginosa (PA01) = test: Checkerboard potentiation assay with novobiocin; format: cell-based
Experimental: as §1, §2
(§3) To probe the spectrum of activity of the present analogs beyond A. baumannii, their interactions with novobiocin were assessed against the high-priority Gram-negative pathogens Klebsiella pneumoniae and P. aeruginosa (FIG. 5).

[6] = test system: K. pneumoniae (ATCC 43816); test: Checkerboard potentiation assay with novobiocin; format: cell-based
Experimental: as §1, §2, §3

N=C(N)c1ccc(OCCN(CCOc2ccc(C(=N)N)cc2)c2ccccc2)cc1 [Analog P35]
Phospholipidosis MR, percentage in brackets (HepG2 cells): 104% | fraction unbound ([1]; dog plasma): 0.126 | fraction unbound ([1]; human plasma): 0.13 | fraction unbound ([1]; mouse plasma): 0.169 | fraction unbound ([1]; rat plasma): 0.077 | Reduction in blood CFU/mL in combination with novobiocin (A. baumannii ATCC 17978; 10 mg/kg + 50 mg/kg novobiocin, 6 h post-infection): 3.05 log10 | Animals rescued in combination with novobiocin (A. baumannii ATCC 17978; 10 mg/kg analog + 50 mg/kg novobiocin i.p. 2 h post-infection, endpoint 5 days): 100% | Impact on blood CFU/mL, treatment alone (A. baumannii ATCC 17978; alone, 6 h post-infection, compared to control-treated animals): no significant impact | Average Fold-reduction in MIC, Ampicillin (A. baumannii; MIC of ampicillin in A. baumannii): 1 fold | Average Fold-reduction in MIC, Bacitracin (A. baumannii; MIC of bacitracin in A. baumannii): 2 fold | Average Fold-reduction in MIC, Chloramphenicol (A. baumannii; MIC of chloramphenicol in A. baumannii): 2 fold | Average Fold-reduction in MIC, Clarithromycin (A. baumannii; MIC of clarithromycin in A. baumannii): 384 fold | Average Fold-reduction in MIC, Doxycycline (A. baumannii; MIC of doxycycline in A. baumannii): 4 fold | Average Fold-reduction in MIC, Erythromycin (A. baumannii; MIC of erythromycin in A. baumannii): 32 fold | Average Fold-reduction in MIC, Fusidic Acid (A. baumannii; MIC of fusidic acid in A. baumannii): 341.33 fold | Average Fold-reduction in MIC, Linezolid (A. baumannii; MIC of linezolid in A. baumannii): 8 fold | Average Fold-reduction in MIC, Meropenem (A. baumannii; MIC of meropenem in A. baumannii): 4 fold | Average Fold-reduction in MIC, Mupirocin (A. baumannii; MIC of mupirocin in A. baumannii): 4 fold | Average Fold-reduction in MIC, Nafcillin (A. baumannii; MIC of nafcillin in A. baumannii): 1.5 fold | Average Fold-reduction in MIC, Nalidixic Acid (A. baumannii; MIC of nalidixic acid in A. baumannii): 4 fold | Average Fold-reduction in MIC, Novobiocin (A. baumannii; MIC of novobiocin in A. baumannii): 512 fold | Average Fold-reduction in MIC, Oxacillin (A. baumannii; MIC of oxacillin in A. baumannii): 1 fold | Average Fold-reduction in MIC, Rifampicin (A. baumannii; MIC of rifampicin in A. baumannii): 384 fold | Average Fold-reduction in MIC, Rifaximin (A. baumannii; MIC of rifaximin in A. baumannii): 256 fold | Average Fold-reduction in MIC, Roxithromycin (A. baumannii; MIC of roxithromycin in A. baumannii): 341.33 fold | Average Fold-reduction in MIC, Thiostrepton (A. baumannii; MIC of thiostrepton in A. baumannii): 170.67 fold | Average Fold-reduction in MIC, Trimethoprim (A. baumannii; MIC of trimethoprim in A. baumannii): 5.33 fold | Average Fold-reduction in MIC, Vancomycin (A. baumannii; MIC of vancomycin in A. baumannii): 4 fold | thermodynamic solubility (Solubility at pH 7.4): 182 µM (≈ 76.2 µg/mL) | half-life [2]: > 145 min | AC50 at 72 h (in vitro; HepG2 viability / cell cycle arrest AC50): 14.5 µM | AC50 at 72 h (in vitro; Nuclear Size AC50 (μM)): 94.5 µM | AC50 at 72 h (in vitro; Phospholipidosis AC50 (μM)): 43.1 µM | AUCExtra (%) ([3]; female, C57BL/6, mouse, iv): 6.74% | AUMCExtra (%) ([3]; female, C57BL/6, mouse, iv): 37.7% | Tlast ([3]; female, C57BL/6, mouse, iv): 8.00 h | Adverse effects after single intravenous dose ([3]; mouse): no adverse effects | half-life [4]: 110 min | LPS Displacement (EC50, μg/mL) (LPS from E. coli EH100): 87.21 µg/mL | FICI with novobiocin against K. pneumoniae expressing mcr-1 [5]: 0.12 | FICI PA (P. aeruginosa (PA01)): 0.3125 | FICI KP [6]: 0.12
